Measurements reported in ChEMBL document CHEMBL4043187, “Synthesis and biological evaluation of N9-cis-cyclobutylpurine derivatives for use as cyclin-dependent kinase (CDK) inhibitors” (Bioorg Med Chem Lett, 2017).

Key:
CDK2/Cyclin A2 = CDK2/Cyclin A2 (Homo sapiens, UniProt P24941); assay: Inhibition of CDK2/CyclinA (unknown origin) using ULingt-4E-BP as substrate after 1 hr in presence of ATP by fluorescence assay; assay type: protein-complex assay
[1] = target: Cyclin-dependent kinase 5/CDK5 activator 1 (Homo sapiens, UniProt Q00535); assay: Inhibition of CDK5/p35 (unknown origin) using ULingt-4E-BP as substrate after 1 hr in presence of ATP by fluorescence assay; assay type: protein-complex assay
Sequence of Cyclin-dependent kinase 5/CDK5 activator 1 (Q00535 whole entry): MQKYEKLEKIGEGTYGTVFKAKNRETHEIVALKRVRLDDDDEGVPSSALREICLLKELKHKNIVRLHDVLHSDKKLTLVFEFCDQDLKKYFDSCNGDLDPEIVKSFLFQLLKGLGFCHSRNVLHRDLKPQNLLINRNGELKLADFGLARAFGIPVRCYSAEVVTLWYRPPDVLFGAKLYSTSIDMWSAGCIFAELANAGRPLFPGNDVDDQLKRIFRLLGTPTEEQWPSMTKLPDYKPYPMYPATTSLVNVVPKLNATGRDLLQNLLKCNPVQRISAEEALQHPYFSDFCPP
Sequence of Cyclin-dependent kinase 5/CDK5 activator 1 (Q15078 whole entry, further chain): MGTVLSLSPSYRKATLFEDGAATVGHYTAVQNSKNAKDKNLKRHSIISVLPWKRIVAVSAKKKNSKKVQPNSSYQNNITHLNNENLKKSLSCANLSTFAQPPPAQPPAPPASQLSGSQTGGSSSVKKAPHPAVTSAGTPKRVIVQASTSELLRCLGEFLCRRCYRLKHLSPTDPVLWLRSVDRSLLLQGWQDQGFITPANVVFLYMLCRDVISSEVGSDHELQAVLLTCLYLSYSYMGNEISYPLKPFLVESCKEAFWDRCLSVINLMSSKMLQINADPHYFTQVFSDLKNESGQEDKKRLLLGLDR

[2] = target: CDK2/Cyclin A2 (Homo sapiens) (UniProt P24941+P20248); assay: Inhibition of CDK2/CyclinA (unknown origin) using ULingt-4E-BP as substrate at 25 nM after 1 hr in presence of ATP by fluorescence assay relative to control; assay type: protein-complex assay
[3] = target: Cyclin-dependent kinase 5/CDK5 activator 1 (Homo sapiens) (UniProt Q00535+Q15078); assay: Inhibition of CDK5/p35 (unknown origin) using ULingt-4E-BP as substrate at 25 nM after 1 hr in presence of ATP by fluorescence assay relative to control; assay type: protein-complex assay
Sequence of Cyclin-dependent kinase 5/CDK5 activator 1 (Homo sapiens) (Q00535 whole entry): as the sequence (Q00535 whole entry) above
Sequence of Cyclin-dependent kinase 5/CDK5 activator 1 (Homo sapiens) (Q15078 99-307 partner limits assumed): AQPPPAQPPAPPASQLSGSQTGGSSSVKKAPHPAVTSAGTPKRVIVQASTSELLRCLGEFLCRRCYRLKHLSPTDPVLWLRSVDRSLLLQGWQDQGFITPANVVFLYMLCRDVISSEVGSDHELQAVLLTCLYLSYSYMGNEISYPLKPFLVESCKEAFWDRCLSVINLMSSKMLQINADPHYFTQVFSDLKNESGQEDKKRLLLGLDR

HCT-116 = assay: Growth inhibition of human HCT116 cells after 72 hrs by SRB assay; assay type: functional
MCF7 = assay: Growth inhibition of human MCF7 cells after 72 hrs by SRB assay; assay type: functional
[4] = target: Cyclin-dependent kinase 1/cyclin B1 (Homo sapiens, UniProt P06493); assay: Inhibition of human CDK1/CyclinB; assay type: protein-complex assay
Sequence of Cyclin-dependent kinase 1/cyclin B1 (P06493 whole entry): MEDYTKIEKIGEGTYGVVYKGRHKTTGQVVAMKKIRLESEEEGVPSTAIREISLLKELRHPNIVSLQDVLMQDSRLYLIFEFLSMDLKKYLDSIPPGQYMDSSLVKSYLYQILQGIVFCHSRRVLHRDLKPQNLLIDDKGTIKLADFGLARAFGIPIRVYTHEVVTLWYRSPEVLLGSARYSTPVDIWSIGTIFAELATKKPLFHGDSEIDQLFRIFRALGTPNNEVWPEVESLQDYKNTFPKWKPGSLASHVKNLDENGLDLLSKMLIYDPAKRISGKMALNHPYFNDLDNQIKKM
Sequence of Cyclin-dependent kinase 1/cyclin B1 (P14635 whole entry, further chain): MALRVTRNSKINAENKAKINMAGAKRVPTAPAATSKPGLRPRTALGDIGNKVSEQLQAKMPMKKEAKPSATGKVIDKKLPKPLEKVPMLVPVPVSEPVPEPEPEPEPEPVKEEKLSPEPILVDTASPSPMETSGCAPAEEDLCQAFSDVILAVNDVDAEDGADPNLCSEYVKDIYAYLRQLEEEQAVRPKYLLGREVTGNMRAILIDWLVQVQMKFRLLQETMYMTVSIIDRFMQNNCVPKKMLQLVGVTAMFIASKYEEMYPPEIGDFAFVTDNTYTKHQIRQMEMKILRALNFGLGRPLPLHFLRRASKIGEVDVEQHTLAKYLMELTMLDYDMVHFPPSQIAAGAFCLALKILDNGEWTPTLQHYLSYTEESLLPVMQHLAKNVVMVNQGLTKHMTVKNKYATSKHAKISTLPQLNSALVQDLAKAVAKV

CDK4/Cyclin D3 = CDK4/Cyclin D3 (Homo sapiens, UniProt P11802); assay: Inhibition of human CDK4/CyclinD3; assay type: protein-complex assay
Sequence of CDK4/Cyclin D3 (P11802 whole entry): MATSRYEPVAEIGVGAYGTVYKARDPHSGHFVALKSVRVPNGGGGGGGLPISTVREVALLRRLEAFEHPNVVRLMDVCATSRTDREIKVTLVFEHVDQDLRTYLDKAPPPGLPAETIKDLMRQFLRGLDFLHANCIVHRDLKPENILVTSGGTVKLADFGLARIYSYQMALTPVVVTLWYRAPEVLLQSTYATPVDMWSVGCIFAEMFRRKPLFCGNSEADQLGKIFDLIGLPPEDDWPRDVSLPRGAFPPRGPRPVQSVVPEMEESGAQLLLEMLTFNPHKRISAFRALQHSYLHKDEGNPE
Sequence of CDK4/Cyclin D3 (P30281 whole entry, further chain): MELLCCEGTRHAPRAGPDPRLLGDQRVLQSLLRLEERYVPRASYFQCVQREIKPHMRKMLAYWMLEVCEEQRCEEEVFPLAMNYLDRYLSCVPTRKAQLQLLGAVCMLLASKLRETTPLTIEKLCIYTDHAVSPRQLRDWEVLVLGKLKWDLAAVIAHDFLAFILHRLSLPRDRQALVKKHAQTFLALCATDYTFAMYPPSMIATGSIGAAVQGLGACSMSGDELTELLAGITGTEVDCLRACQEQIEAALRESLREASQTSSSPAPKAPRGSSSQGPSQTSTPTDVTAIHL

CDK6/cyclin D3 = CDK6/cyclin D3 (Homo sapiens, UniProt Q00534); assay: Inhibition of human CDK6/CyclinD3; assay type: protein-complex assay
Sequence of CDK6/cyclin D3 (P30281 whole entry): as the sequence (P30281 whole entry, further chain) above
Sequence of CDK6/cyclin D3 (Q00534 whole entry): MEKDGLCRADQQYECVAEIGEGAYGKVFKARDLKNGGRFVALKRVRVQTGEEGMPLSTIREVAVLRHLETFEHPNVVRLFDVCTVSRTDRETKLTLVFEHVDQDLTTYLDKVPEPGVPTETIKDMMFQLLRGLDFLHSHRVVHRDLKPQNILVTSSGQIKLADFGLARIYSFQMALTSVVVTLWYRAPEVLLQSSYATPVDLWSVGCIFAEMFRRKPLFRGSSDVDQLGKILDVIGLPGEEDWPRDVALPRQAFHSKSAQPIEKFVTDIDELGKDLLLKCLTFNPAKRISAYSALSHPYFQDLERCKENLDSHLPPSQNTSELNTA

CDK7/Cyclin H/MNAT1 = CDK7/Cyclin H/MNAT1 (Homo sapiens, UniProt P50613); assay: Inhibition of human CDK7/CyclinH/MAT1; assay type: protein-complex assay
Sequence of CDK7/Cyclin H/MNAT1 (P51946 whole entry): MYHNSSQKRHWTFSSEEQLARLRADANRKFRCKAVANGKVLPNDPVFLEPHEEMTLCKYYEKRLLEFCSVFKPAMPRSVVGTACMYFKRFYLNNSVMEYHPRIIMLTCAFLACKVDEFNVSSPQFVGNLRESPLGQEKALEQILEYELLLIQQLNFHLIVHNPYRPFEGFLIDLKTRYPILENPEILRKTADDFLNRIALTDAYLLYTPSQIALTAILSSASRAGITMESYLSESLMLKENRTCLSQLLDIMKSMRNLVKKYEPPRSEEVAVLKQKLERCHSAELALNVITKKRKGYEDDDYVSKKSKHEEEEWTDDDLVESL
Sequence of CDK7/Cyclin H/MNAT1 (P50613 whole entry): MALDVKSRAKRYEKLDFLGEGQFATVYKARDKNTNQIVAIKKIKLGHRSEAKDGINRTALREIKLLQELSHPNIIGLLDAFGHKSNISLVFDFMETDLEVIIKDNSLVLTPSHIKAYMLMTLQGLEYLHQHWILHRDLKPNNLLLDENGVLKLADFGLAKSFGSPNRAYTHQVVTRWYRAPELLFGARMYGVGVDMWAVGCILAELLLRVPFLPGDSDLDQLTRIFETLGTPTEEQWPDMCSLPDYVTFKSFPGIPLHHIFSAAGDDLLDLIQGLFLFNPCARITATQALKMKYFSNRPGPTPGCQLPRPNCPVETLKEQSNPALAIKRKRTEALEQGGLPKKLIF
Sequence of CDK7/Cyclin H/MNAT1 (P51948 whole entry, further chain): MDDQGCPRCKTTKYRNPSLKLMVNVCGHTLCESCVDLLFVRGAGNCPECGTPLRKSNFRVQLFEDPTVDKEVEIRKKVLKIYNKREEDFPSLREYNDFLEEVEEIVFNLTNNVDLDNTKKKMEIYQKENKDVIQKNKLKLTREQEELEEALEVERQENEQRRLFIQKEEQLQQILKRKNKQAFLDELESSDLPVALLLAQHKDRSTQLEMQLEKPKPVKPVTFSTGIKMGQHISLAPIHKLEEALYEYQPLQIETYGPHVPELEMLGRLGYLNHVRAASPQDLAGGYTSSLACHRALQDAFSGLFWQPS

CDK9/cyclin T1 = CDK9/cyclin T1 (Homo sapiens, UniProt P50750); assay: Inhibition of human CDK9/CyclinT1; assay type: protein-complex assay
Sequence of CDK9/cyclin T1 (O60563 whole entry): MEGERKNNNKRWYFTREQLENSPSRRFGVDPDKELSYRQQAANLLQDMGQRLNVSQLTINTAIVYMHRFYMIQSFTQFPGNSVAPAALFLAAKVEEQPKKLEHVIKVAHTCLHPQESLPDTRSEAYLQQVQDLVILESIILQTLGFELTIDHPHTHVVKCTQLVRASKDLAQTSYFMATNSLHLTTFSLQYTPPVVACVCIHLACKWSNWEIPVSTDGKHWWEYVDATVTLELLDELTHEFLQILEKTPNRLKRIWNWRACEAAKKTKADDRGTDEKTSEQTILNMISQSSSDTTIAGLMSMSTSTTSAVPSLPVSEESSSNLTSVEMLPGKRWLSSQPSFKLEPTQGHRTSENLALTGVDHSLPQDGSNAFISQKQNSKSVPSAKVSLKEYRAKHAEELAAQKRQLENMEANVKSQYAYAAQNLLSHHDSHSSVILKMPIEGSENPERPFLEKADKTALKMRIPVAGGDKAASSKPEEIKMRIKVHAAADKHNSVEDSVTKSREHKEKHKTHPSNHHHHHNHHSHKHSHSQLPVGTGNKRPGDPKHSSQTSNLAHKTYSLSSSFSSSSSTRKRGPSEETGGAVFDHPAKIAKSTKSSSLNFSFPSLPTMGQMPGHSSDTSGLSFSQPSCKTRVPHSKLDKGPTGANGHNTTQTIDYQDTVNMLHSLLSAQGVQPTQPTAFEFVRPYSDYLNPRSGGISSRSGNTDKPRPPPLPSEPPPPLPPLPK
Sequence of CDK9/cyclin T1 (P50750 whole entry): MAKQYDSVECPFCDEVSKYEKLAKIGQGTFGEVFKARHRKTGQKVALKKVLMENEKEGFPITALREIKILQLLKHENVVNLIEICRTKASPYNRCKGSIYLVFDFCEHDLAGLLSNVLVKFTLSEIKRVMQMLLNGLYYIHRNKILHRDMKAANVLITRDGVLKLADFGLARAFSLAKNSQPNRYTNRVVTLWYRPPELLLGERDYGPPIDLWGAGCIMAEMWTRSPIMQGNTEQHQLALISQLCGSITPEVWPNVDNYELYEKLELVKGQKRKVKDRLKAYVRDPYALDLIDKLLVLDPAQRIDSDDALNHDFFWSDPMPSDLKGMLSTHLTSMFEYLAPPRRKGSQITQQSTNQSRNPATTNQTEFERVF

| Structure (SMILES) | IC50 (CDK2/Cyclin A2) [nM] | IC50 [1] [nM] | inhibition [2] [%] | inhibition [3] [%] | further results |
| --- | --- | --- | --- | --- | --- |
| Cc1cccc(C(=O)N[C@H]2C[C@@H](n3cnc4c(NCc5cccc(C(F)(F)F)c5)ncnc43)C2)n1 | – | – | < 50 | 72 | – |
| Cc1cccc(C(=O)N[C@H]2C[C@@H](n3cnc4c(Nc5cccc(Cl)c5)ncnc43)C2)n1 | – | – | < 50 | 60 | – |
| Cc1cccc(C(=O)N[C@H]2C[C@@H](n3cnc4c(NCc5ccc(N(C)C)cc5)ncnc43)C2)n1 | – | – | < 50 | 53 | – |
| O=C(N[C@H]1C[C@@H](n2cnc3c(NCc4cccnc4)ncnc32)C1)c1c(F)cccc1F | – | – | 78 | 57 | – |
| Cc1cccc(C(=O)N[C@H]2C[C@@H](n3cnc4c(NCc5ccccc5F)ncnc43)C2)n1 | – | – | < 50 | 55 | – |
| Cc1cccc(C(=O)N[C@H]2C[C@@H](n3cnc4c(NCc5cccc(Br)c5)ncnc43)C2)n1 | 2.1 | 4.8 | – | – | GI (HCT-116): 2.37 µM; GI (MCF7): 2.43 µM; IC50 [4]: 24 nM; IC50 (CDK4/Cyclin D3): 611 nM; IC50 (CDK6/cyclin D3): > 1000 nM; IC50 (CDK7/Cyclin H/MNAT1): 359 nM; IC50 (CDK9/cyclin T1): 19 nM |
| Cc1ccc(C(=O)N[C@H]2C[C@@H](n3cnc4c(NCc5cccnc5)ncnc43)C2)cc1C | – | – | < 50 | < 50 | – |
| Cc1cccc(C(=O)N[C@H]2C[C@@H](n3cnc4c(NCc5ccc(OC(F)(F)F)cc5)ncnc43)C2)n1 | – | – | < 50 | 54 | – |
| Cc1cccc(C(=O)N[C@H]2C[C@@H](n3cnc4c(NC5CCN(C(=O)OC(C)(C)C)C5)ncnc43)C2)n1 (some centres undefined) | – | > 500 | – | – | – |
| Cc1cccc(C(=O)N[C@H]2C[C@@H](n3cnc4c(NC5CCN(C(=O)OC(C)(C)C)CC5)ncnc43)C2)n1 | 95 | 66 | – | – | – |
| Cc1cccc(C(=O)N[C@H]2C[C@@H](n3cnc4c(NCc5ccc(Br)cc5)ncnc43)C2)n1 | – | – | 64 | 80 | – |
| CN1CCCC1C(=O)N[C@H]1C[C@@H](n2cnc3c(NCc4cccnc4)ncnc32)C1 (some centres undefined) | – | – | < 50 | < 50 | – |
| O=C(CC1CCCCC1)N[C@H]1C[C@@H](n2cnc3c(NCc4cccnc4)ncnc32)C1 | – | – | < 50 | < 50 | – |
| Cc1cccc(C(=O)N[C@H]2C[C@@H](n3cnc4c(NCc5cccc(Cl)c5)ncnc43)C2)n1 | 7.2 | 2.3 | – | – | GI (HCT-116): 2.14 µM; GI (MCF7): 2.49 µM; IC50 [4]: 23 nM; IC50 (CDK4/Cyclin D3): > 1000 nM; IC50 (CDK6/cyclin D3): > 1000 nM; IC50 (CDK7/Cyclin H/MNAT1): 319 nM; IC50 (CDK9/cyclin T1): 27 nM |
| Cc1cccc(C(=O)N[C@H]2C[C@@H](n3cnc4c(NC5CCNCC5)ncnc43)C2)n1 | 379 | 162 | – | – | – |
| Cc1cccc(C(=O)N[C@H]2C[C@@H](n3cnc4c(NCc5cccc(F)c5)ncnc43)C2)n1 | 15 | 6 | – | – | – |

| Structure (SMILES) | IC50 (CDK2/Cyclin A2) [nM] | IC50 [1] [nM] | inhibition [2] [%] | inhibition [3] [%] | further results |
| --- | --- | --- | --- | --- | --- |
| Cc1cccc(C(=O)N[C@H]2C[C@@H](n3cnc4c(Nc5cccc(F)c5)ncnc43)C2)n1 | – | – | < 50 | < 50 | – |
| Cc1cccc(C(=O)N[C@H]2C[C@@H](n3cnc4c(N[C@H]5CC[C@H](O)CC5)ncnc43)C2)n1 | – | > 500 | – | – | – |
| COc1cc(Cl)ccc1C(=O)N[C@H]1C[C@@H](n2cnc3c(NCc4cccnc4)ncnc32)C1 | – | – | < 50 | < 50 | – |
| Cc1cccc(C(=O)N[C@H]2C[C@@H](n3cnc4c(Nc5ccncc5)ncnc43)C2)n1 | > 1000 | > 1000 | – | – | – |
| Cc1cccc(C(=O)N[C@H]2C[C@@H](n3cnc4c(NCc5ccc(Cl)c(Cl)c5)ncnc43)C2)n1 | 77 | 34 | – | – | – |
| CC(=O)N[C@H]1CC[C@@H](Nc2ncnc3c2ncn3[C@H]2C[C@@H](NC(=O)c3cccc(C)n3)C2)CC1 | 112 | 27 | – | – | – |
| Cc1cccc(C(=O)N[C@H]2C[C@@H](n3cnc4c(NCC5CCN(C(=O)OC(C)(C)C)CC5)ncnc43)C2)n1 | 376 | 90 | – | – | – |
| Cc1cccc(C(=O)N[C@H]2C[C@@H](n3cnc4c(NC5CCNC5)ncnc43)C2)n1 (some centres undefined) | – | > 1000 | – | – | – |
| O=C(N[C@H]1C[C@@H](n2cnc3c(NCc4cccnc4)ncnc32)C1)c1ccncc1 | – | – | < 50 | < 50 | – |
| O=C(N[C@H]1C[C@@H](n2cnc3c(NCc4cccnc4)ncnc32)C1)c1cccc(C(F)(F)F)n1 | 14 | 23 | – | – | – |
| O=C(N[C@H]1C[C@@H](n2cnc3c(NCc4cccnc4)ncnc32)C1)c1cccc(Cl)c1Cl | – | – | < 50 | < 50 | – |
| COc1ccc(C(=O)N[C@H]2C[C@@H](n3cnc4c(NCc5cccnc5)ncnc43)C2)cc1 | – | – | < 50 | < 50 | – |
| Cc1cccc(C(=O)N[C@H]2C[C@@H](n3cnc4c(NC5CCN(S(C)(=O)=O)CC5)ncnc43)C2)n1 | – | – | 62 | 48 | – |
| Cc1cccc(C(=O)N[C@H]2C[C@@H](n3cnc4c(NCc5ccc(C(F)(F)F)cc5)ncnc43)C2)n1 | – | – | < 50 | 58 | – |
| O=C(N[C@H]1C[C@@H](n2cnc3c(NCc4cccnc4)ncnc32)C1)c1cccc(-c2ccccc2)n1 | 38 | 31 | – | – | – |
| Cc1cccc(C(=O)N[C@H]2C[C@@H](n3cnc4c(NCc5ccc(Oc6ccccc6)cc5)ncnc43)C2)n1 | – | – | < 50 | < 50 | – |

The next lines start with results.

| IC50 (CDK2/Cyclin A2) [nM] | IC50 [1] [nM] | inhibition [2] [%] | inhibition [3] [%] | Structure (SMILES) | further results |
| --- | --- | --- | --- | --- | --- |
| 16 | 10 | – | – | Cc1cccc(C(=O)N[C@H]2C[C@@H](n3cnc4c(NCc5cccnc5)ncnc43)C2)n1 | – |
| – | – | 82 | 64 | O=C(N[C@H]1C[C@@H](n2cnc3c(NCc4cccnc4)ncnc32)C1)c1c(Cl)cccc1Cl | – |
| – | – | < 50 | < 50 | Cc1cccc(C(=O)N[C@H]2C[C@@H](n3cnc4c(NCc5ccccc5C)ncnc43)C2)n1 | – |
| – | > 1000 | – | – | Cc1cccc(C(=O)N[C@H]2C[C@@H](n3cnc4c(NC5CCN(C)CC5)ncnc43)C2)n1 | – |
| 48 | 71 | – | – | Cc1cccc(C(=O)N[C@H]2C[C@@H](n3cnc4c(NCC5CCNCC5)ncnc43)C2)n1 | – |
| 474 | 179 | – | – | CC(=O)N1CCC(Nc2ncnc3c2ncn3[C@H]2C[C@@H](NC(=O)c3cccc(C)n3)C2)CC1 | – |
| 160 | 30 | – | – | CC(=O)N[C@H]1CC[C@H](Nc2ncnc3c2ncn3[C@H]2C[C@@H](NC(=O)c3cccc(C)n3)C2)CC1 | – |
| – | – | < 50 | 59 | Cc1cccc(C(=O)N[C@H]2C[C@@H](n3cnc4c(NCc5ccccc5Cl)ncnc43)C2)n1 | – |
| – | – | < 50 | < 50 | Cc1cccc(C(=O)N[C@H]2C[C@@H](n3cnc4c(NCc5ccncc5)ncnc43)C2)n1 | – |
| 54 | 94 | – | – | COc1ccc(Nc2ncnc3c2ncn3[C@H]2C[C@@H](NC(=O)c3cccc(C)n3)C2)cc1OC | – |
| – | – | < 50 | 63 | COc1ccc(Nc2ncnc3c2ncn3[C@H]2C[C@@H](NC(=O)c3cccc(C)n3)C2)cc1 | – |
| – | – | < 50 | < 50 | O=C(N[C@H]1C[C@@H](n2cnc3c(NCc4cccnc4)ncnc32)C1)C1CCOCC1 | – |
| – | – | < 50 | < 50 | COc1ccccc1CNc1ncnc2c1ncn2[C@H]1C[C@@H](NC(=O)c2cccc(C)n2)C1 | – |
| – | – | < 50 | < 50 | O=C(N[C@H]1C[C@@H](n2cnc3c(NCc4cccnc4)ncnc32)C1)c1cnccn1 | – |
| – | – | < 50 | < 50 | CN(C)c1cccc(C(=O)N[C@H]2C[C@@H](n3cnc4c(NCc5cccnc5)ncnc43)C2)c1 | – |
| – | – | 57 | 81 | COc1ccc(CNc2ncnc3c2ncn3[C@H]2C[C@@H](NC(=O)c3cccc(C)n3)C2)cc1 | – |
| – | – | 49 | 54 | Cc1cccc(C(=O)N[C@H]2C[C@@H](n3cnc4c(NCc5ccccn5)ncnc43)C2)n1 | – |
| 18 | 67 | – | – | COc1cccc(Nc2ncnc3c2ncn3[C@H]2C[C@@H](NC(=O)c3cccc(C)n3)C2)c1 | – |
| 5.4 | 30 | – | – | Cc1cccc(C(=O)N[C@H]2C[C@@H](n3cnc4c(NCc5ccc(F)cc5)ncnc43)C2)n1 | – |
| – | – | < 50 | < 50 | O=C(N[C@H]1C[C@@H](n2cnc3c(NCc4cccnc4)ncnc32)C1)c1cccnc1 | – |
| 29 | 13 | – | – | Cc1cccc(C(=O)N[C@H]2C[C@@H](n3cnc4c(NCc5ccc(F)c(F)c5)ncnc43)C2)n1 | – |
| – | – | 62 | 48 | CS(=O)(=O)N1CCC(C(=O)N[C@H]2C[C@@H](n3cnc4c(NCc5cccnc5)ncnc43)C2)CC1 | – |
| – | – | < 50 | < 50 | Cc1cccc(C(=O)N[C@H]2C[C@@H](n3cnc4c(NCc5ccc(C#N)cc5)ncnc43)C2)n1 | – |
| 49 | 25 | – | – | Cc1cccc(C(=O)N[C@H]2C[C@@H](n3cnc4c(NCC5CCCCC5)ncnc43)C2)n1 | – |
| – | – | < 50 | < 50 | O=C(N[C@H]1C[C@@H](n2cnc3c(NCc4cccnc4)ncnc32)C1)c1ccccc1 | – |
